Experimental data taken from patent US5635510A, “Substituted pyrrolidin-3-yl-alkyl-piperidines” (Merrell Pharmaceuticals Inc., priority 1994, dated 1997).

What was measured:
[1] = biological target: T1, NK1 receptor (Homo sapiens, UniProt P25103); assay: Antagonism of NK1 receptor mediated (SP-induced) phosphatidylinositol turnover in UC11 cells; type: cell-based
T1 construct: antagonizes both NK1 (on UC11 cells); endogenous in cells; host or cells: UC11 cells
Method: (§1) Tachykinin-mediated inositol phosphate accumulation was measured in UC11 or SKLKB82#3 cells in the presence and absence of NK1 or NK2 receptor antagonists, respectively. Tissues were incubated in Krebs-Henseleit buffer at 37° C. with 95% O2 -5% CO2 gassing. Tissues were then incubated with fresh buffer containing 100 μCi of myo-[2-3H(N)] inositol at 37° C. for 60 min with gentle gassing. After washing twice in 5 ml room temperature buffer containing 10 mM LiCl, tissues were incubated for 30 min at room temperature with a buffer change at 15 min. Buffer was removed and Krebs-Henseleit buffer (containing 40 μg/ml bacitracin, 4 μg/ml each of leupeptin and chymostatin, 0.1% bovine serum albumin and 10 mM each of thiorphan and LiCl) added. After 15 min, SP was added to UC11 cells or NKA to SKLKB82#3 cells at various concentrations to start the reaction. After incubation for 60 min at room temperature the reaction was terminated by addition of 930 μl chloroform: methanol (1:2 by volume) to each tube, followed by 310 μl chloroform and 310 μl doubly distilled water. Samples were vortexed, centrifuged, and 0.9 ml of the aqueous (top) phase removed and added to 2 ml ddH2 O. The mixture was vortexed and loaded onto a 50% Bio-Rad AG 1-X8 (formate form, 100-200 mesh) exchange column (Bio-Rad Laboratories, Hercules, Calif.). The columns were washed, in order, with: 1) 10 ml doubly distilled water, 2) 5 ml of 5 mM disodium tetraborate/60 mM sodium formate, and 3) 5 ml of 1M ammonium formate/0.1M formic acid. The third elution was collected and 1 ml counted in 7 ml scintillation fluid. A 50 μl aliquot of the organic (bottom) phase was removed, dried in a scintillation vial and counted in 7 ml scintillation fluid.
(§2) The ratio of DPM in the aqueous phase aliquot (total inositol phosphates) to the DPM in the 50 μl organic phase aliquot (total [^3 H]inositol incorporated) was calculated for each sample. Data are expressed as a percent of agonist-induced accumulation of [^3 H]-inositol phosphates over basal levels. The ratios in the presence of test compound and/or standards were compared to the ratios for control samples (i.e. no stimulating agonist). Dose-response graphs were constructed and the abilities of the test compounds to inhibit tachykinin-induced phosphatidyinositol turnover determined with the aid of a computer program. […] Data is expressed as percent stimulation of total inositol phosphate accumulation over basal levels and normalized to the maximum response produced by SP. […] Schild analysis is performed using dose response curves (such as those presented in FIGS. 1a and 1b) to obtain a value indicative of the strength of a competitive antagonist and is expressed as the pA2, which is the negative logarithm of the molar concentration of antagonist which reduces the effect of a dose of agonist to one-half of that expected at the dose of agonist.

[2] = biological target: T2, NK2 receptor (Bos taurus, UniProt P05363); assay: Antagonism of NK2 receptor mediated (NKA-induced) phosphatidylinositol turnover in SKLKB82#3 cells; type: cell-based
T2 construct: expressed in transfected cells; host or cells: SKLKB82#3 cells
T2 sequence (P05363 1-384): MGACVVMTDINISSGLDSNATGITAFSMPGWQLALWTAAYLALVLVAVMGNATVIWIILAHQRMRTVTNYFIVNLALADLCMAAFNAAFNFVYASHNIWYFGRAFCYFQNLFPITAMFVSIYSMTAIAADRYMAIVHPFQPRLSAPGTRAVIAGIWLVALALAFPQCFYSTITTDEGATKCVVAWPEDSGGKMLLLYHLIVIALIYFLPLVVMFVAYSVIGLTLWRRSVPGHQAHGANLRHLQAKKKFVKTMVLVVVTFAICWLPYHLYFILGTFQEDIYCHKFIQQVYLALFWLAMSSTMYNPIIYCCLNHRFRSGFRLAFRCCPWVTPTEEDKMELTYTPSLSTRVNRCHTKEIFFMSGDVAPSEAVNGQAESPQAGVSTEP
Method: as §1
as §2, with “The ratios in the presence of test compound and/or standards were compared to the ratios for control samples (i.e. no stimulating agonist).” left out

[3] = system: NK2 receptor; assay: Antagonism of NKA-induced respiratory effects in conscious guinea pigs; type: in vivo, guinea pig; conditions: for dyspnea incidence / dyspnea onset: i.v. 20 min prior to NKA aerosol (0.05%); for dyspnea onset: mean and SEM; for effect on NKA-induced respiratory effects (in words): NKA aerosol, dose dependent
Method: In vivo experiments were performed using male Duncan Hartley guinea pigs (250-350g). Changes in conscious breathing patterns were monitored in four animals simultaneously using modified whole body plethysmography consisting of four small plexiglass boxes each connected to a reference box via Validyne DP 45-16 differential pressure transducers. The 4 boxes were equipped with an air supply line (also used for aerosol delivery) and an exhaust air line. Supply and exhaust lines were of the same length and narrow bore and arose from a common supply chamber and vented to a common exhaust chamber. This system was used to ensure that fluctuations in supply air and atmospheric pressure would remain in phase and be eliminated from the net signal by the differential pressure transducers. The analog pressure signals were digitalized via a Data Translation DT2821 A to D board. Data were collected at a rate of 100 samples/second/animal. Each cycle of pressure change was analyzed using the following parameters: rising and falling slope determined between minimum and maximum pressures, the ratio of rising over falling slope, and the magnitude of the change between initial trough pressure and peak cycle pressure. Using these values (and observing the animals) the pressure cycles were characterized into normal breaths, forced exhalations (apparent by abdominal heaving), significant respiratory events (SREs; usually coughs, less often sneezes or gasps which were characterized by transient, extremely large pressure increases which were distinguishable from noise) and movement/noise with a PCAT 286 running a System V UNIX operating system. Dyspnea was defined as a significant, sustained increase in plethysmograph pressure which was associated with an observable shift to labored breathing in the animal.
During the course of a typical experiment in which airway responsiveness to various bronchoconstricting agents was examined, aerosols were delivered for 19 min (0.33 ml/min) using a DeVilbiss Ultraneb 99 ultrasonic nebulizer and animals monitored during this time. Prior to nebulization, 1 min of resting breathing was collected to establish a baseline pressure. […] The vehicle for nebulization of all bronchoconstrictive agents was phosphate buffered saline (pH 7.4) which elicited no respiratory effects itself. Putative tachykinin antagonists were administered either (i.v.) 20 min prior to onset of aerosol exposure or orally 1 hour prior to onset (to guinea pigs after an overnight fast).

T1 sequence (P25103 whole entry): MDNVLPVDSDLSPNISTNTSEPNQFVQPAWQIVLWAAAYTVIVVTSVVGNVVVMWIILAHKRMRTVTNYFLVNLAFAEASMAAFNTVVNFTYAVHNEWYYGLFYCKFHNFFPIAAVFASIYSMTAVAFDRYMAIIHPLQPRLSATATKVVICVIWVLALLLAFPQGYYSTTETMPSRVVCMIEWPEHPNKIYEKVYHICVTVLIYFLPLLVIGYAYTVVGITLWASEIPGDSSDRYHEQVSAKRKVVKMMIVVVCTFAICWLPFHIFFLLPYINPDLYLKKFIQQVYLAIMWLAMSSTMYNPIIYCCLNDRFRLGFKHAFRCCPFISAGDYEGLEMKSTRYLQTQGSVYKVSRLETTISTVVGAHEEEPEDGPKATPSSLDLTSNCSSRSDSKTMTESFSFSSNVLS

COc1cc(C(=O)N2CCC(CCN3CCC(C(N)=O)(c4ccccc4)CC3)(c3ccc(Cl)c(Cl)c3)C2)cc(OC)c1OC (single isomer, unassigned; (+)) [Example 20, (+)-1-[2-[3-(3,4-dichloro-phenyl)-1-(3,4,5-trimethoxy-benzoyl)-pyrrolidin-3-yl]-ethyl]-4-phenylpiperidine-4-carboxylic acid amide]
relative antagonism of NK1 and NK2 receptors (in words) ([1]; PI turnover, UC11 (NK1) versus SKLKB82#3 (NK2) cells): antagonized both NK1 and NK2 receptors by nearly equivalent amounts | Kb ([1]; UC11 cells, SP, Schild analysis, mean (95% confidence limits), 2-3 experiments, read-out: NK-1 receptor pA2 (converted)): 6.46 nM | Kb [2]: 2.14 nM | NK-2 receptor slope ([2]; SKLKB82#3 cells, NKA, Schild slope, mean (95% confidence limits)): 1.00

COc1cc(C(=O)N2CCC(CCN3CCC(C(N)=O)(c4ccccc4)CC3)(c3ccc(Cl)c(Cl)c3)C2)cc(OC)c1OC.Cl (single isomer, unassigned; (+)) [Example 20A, (+)-1-[2-[3-(3,4-dichloro-phenyl)-1-(3,4,5-trimethoxy-benzoyl)-pyrrolidin-3-yl]-ethyl]-4-phenyl-piperidine-4-carboxylic acid amide hydrochloride]
dyspnea incidence ([3]; 1 mg/kg): 100% | dyspnea onset ([3]; 1 mg/kg): 451 ± 30 s | dyspnea incidence ([3]; 5 mg/kg): 90% | dyspnea onset ([3]; 5 mg/kg): 706 ± 82 s | dyspnea incidence ([3]; 10 mg/kg): 70% | dyspnea onset ([3]; 10 mg/kg): 829 ± 105 s | effect on NKA-induced respiratory effects (in words) [3]: reduced the effects of NKA aerosol

COc1cc(C(=O)N2CCC(CCN3CCC(C(N)=O)(c4ccccc4)CC3)(c3ccc(Cl)c(Cl)c3)C2)cc(OC)c1OC (centres unmarked) [Example 3, 1-[2-[3-(3,4-dichloro-phenyl)-1-(3,4,5-trimethoxy-benzoyl)-pyrrolidin-3-yl]-ethyl]-4-phenyl-piperidine-4-carboxylic acid amide]
antagonism of SP-induced PI turnover (in words) ([1]; UC11 cells, FIG. 1a): antagonizes both NK1 (on UC11 cells) and NK2 (on SKLKB82#3) receptors in a dose-dependent manner | agonist activity (stimulation of PI turnover by compound alone) ([1]; UC11 or SKLKB82#3 cells): no agonist activity | antagonism of NKA-induced PI turnover (in words) ([2]; SKLKB82#3 cells, FIG. 1b): antagonizes both NK1 (on UC11 cells) and NK2 (on SKLKB82#3) receptors in a dose-dependent manner | dyspnea incidence ([3]; 5 mg/kg): 86% | dyspnea incidence ([3]; 10 mg/kg): 60% | effect on NKA-induced respiratory effects (in words) [3]: reduced the effects of NKA aerosol
